According to patent US20070049593A1 (priority 2004, published 2007):
Structures can show the parent of a compound that is named as a salt.

molecular target: T1, HCV polymerase (Hepatitis C virus genotype 1b, UniProt P26663); test: biochemical; parameters: species or system HCV BK strain
T1 construct: a region encoding NS5B (J Virol 1991 March, 65(3), 1105-13, 544 amino acids after deletion of 47 amino acids on the C-terminal); 6xHis (C); made in house; host or cells: Escherichia coli
Outline: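 Recombinant HCV BK-strain NS5B (C-terminal 47 aa deleted, His6-tagged, E. coli), 0.5 μg/ml, run with 5 μg/ml in vitro-transcribed RNA template (polyU/3′X), ATP/GTP/CTP 50 μM, UTP 2 μM plus [3H]UTP, pH 7.5, 25° C, 90 min. TCA-precipitated RNA counted by scintillation; IC50 from activity with vs without compound.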

T1 sequence (P26663 2420-2963): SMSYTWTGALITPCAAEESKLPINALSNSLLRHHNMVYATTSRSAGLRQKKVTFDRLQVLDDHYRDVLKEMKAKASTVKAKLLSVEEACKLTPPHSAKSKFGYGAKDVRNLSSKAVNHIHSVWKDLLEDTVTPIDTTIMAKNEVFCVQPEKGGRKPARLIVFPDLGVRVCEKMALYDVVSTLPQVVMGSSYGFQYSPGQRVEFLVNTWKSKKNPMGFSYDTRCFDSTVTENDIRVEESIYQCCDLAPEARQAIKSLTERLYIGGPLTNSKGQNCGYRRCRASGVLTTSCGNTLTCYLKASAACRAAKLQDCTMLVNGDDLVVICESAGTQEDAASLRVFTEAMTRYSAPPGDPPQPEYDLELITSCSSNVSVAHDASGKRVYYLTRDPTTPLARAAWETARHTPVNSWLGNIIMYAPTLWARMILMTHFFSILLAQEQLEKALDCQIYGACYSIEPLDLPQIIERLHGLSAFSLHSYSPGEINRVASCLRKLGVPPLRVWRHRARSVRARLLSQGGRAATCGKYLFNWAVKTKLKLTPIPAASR

Q: Which IC50 does the source give for Cc1ccc2c(c1)N(CCCN1CCCCCC1)CCn1c-2c(C2CCCCC2)c2ccc(C(=O)O)cc21 [Example 1-300, 5-[3-(azepan-1-yl)propyl]-13-cyclohexyl-3-methyl-6,7-dihydro-5H-benzo[5,6][1,4]diazepino[7,1-a]indole-10-carboxylic acid dihydrochloride] here?
A: Its IC50 is < 100 nM.

Q: How did the IC50 turn out when CN(C)CC(C)(NC(=O)c1ccc2c(C3CCCCC3)c3n(c2c1)CCOc1ccccc1-3)C(=O)O (stereo not shown) [Example 2-189, 2-[(12-cyclohexyl-6,7-dihydro-5-oxa-7a-azadibenzo[a,e]azulene-9-carbonyl)amino]-3-dimethylamino-2-methylpropionic acid] was run?
A: The IC50 was 100 to 1000 nM.

Q: With CCN(CCCOC)CCN1CCn2c(c(C3CCCCC3)c3ccc(C(=O)O)cc32)-c2ccc(C)cc21 [Example 1-531, 13-cyclohexyl-5-{2-[N-ethyl-N-(3-methoxypropyl)amino]ethyl}-3-methyl-6,7-dihydro-5H-benzo[5,6][1,4]diazepino[7,1-a]indole-10-carboxylic acid dihydrochloride] as the molecule, how does the IC50 read?
A: The IC50 was < 100 nM.

Q: With COc1ccc2c(c1)N(CCN1CCOCC1)CCn1c-2c(C2CCCCC2)c2ccc(C(=O)O)cc21 [Example 1-67, 13-cyclohexyl-3-methoxy-5-[2-(morpholin-4-yl)ethyl]-6,7-dihydro-5H-benzo[5,6][1,4]diazepino[7,1-a]indole-10-carboxylic acid dihydrochloride] as the molecule, how does the IC50 read?
A: The IC50 was < 100 nM.

Q: With COC(=O)c1ccc2c(C3CCCCC3)c3n(c2c1)CCN(CCN(C)C)c1cc(OCc2cccc(C(=O)O)c2)ccc1-3 [Example 1-583, methyl 3-(3-carboxybenzyloxy)-13-cyclohexyl-5-(2-dimethylaminoethyl)-6,7-dihydro-5H-benzo[5,6][1,4]diazepino[7,1-a]indole-10-carboxylate dihydrochloride] as the molecule, how does the IC50 read?
A: Its IC50 is 100 to 1000 nM.

Q: Which IC50 does the source give for Cn1c(C(C)(C)NC(=O)c2ccc3c(C4CCCCC4)c4n(c3c2)CCOc2ccccc2-4)nc2ccc(C(=O)O)cc21 [Example 2-337, 2-{1-[(12-cyclohexyl-6,7-dihydro-5-oxa-7a-azadibenzo[a,e]azulene-9-carbonyl)amino]-1-methylethyl}-3-methyl-3H-benzimidazole-5-carboxylic acid] here?
A: Its IC50 is < 100 nM.

Q: How did the IC50 turn out when CCN1CCN(C(=O)CN2CCn3c(c(C4CCCCC4)c4ccc(-c5nn[nH]n5)cc43)-c3ccccc32)CC1 [Example 1-96, 2-[13-cyclohexyl-10-(2H-tetrazol-5-yl)-6,7-dihydrobenzo[5,6][1,4]diazepino[7,1-a]indol-5-yl]-1-(4-ethylpiperazin-1-yl)ethanone] was run?
A: The IC50 was < 100 nM.

Q: CCc1ccc2c(c1)N(CCN1CCCC(CC)C1)CCn1c-2c(C2CCCCC2)c2ccc(C(=O)O)cc21 (stereo not shown) [Example 1-350, 13-cyclohexyl-3-ethyl-5-[2-(3-ethylpiperidin-1-yl)ethyl]-6,7-dihydro-5H-benzo[5,6][1,4]diazepino[7,1-a]indole-10-carboxylic acid dihydrochloride] was tested. Which IC50 did it give?
A: The IC50 was < 100 nM.

Q: Which IC50 does the source give for COc1ccc2c(c1)OCCn1c-2c(C2CCCCC2)c2ccc(C(=O)NC(C)(C)c3nc4ccccc4n3CCO)cc21 [Example 2-433, N-{1-[1-(2-hydroxyethyl)-1H-benzimidazol-2-yl]-1-methylethyl}-12-cyclohexyl-3-methoxy-6,7-dihydro-5-oxa-7a-azadibenzo[a,e]azulene-9-carboxamide] here?
A: The IC50 was < 100 nM.

Q: For COC(=O)[C@H](Cc1ccc(O)cc1)NC(=O)c1ccc2c(C3CCCCC3)c3n(c2c1)CCOc1ccccc1-3 [Example 2-175, methyl (S)-2-[(12-cyclohexyl-6,7-dihydro-5-oxa-7a-azadibenzo[a,e]azulene-9-carbonyl)amino]-3-(4-hydroxyphenyl)propionate], which IC50 is on record?
A: The IC50 was < 100 nM.

Q: O=C(O)c1ccc2c(C3CCCCC3)c3n(c2c1)CCN(Cc1ccccn1)c1ccccc1-3 [Example 1-126, 13-cyclohexyl-5-(pyridin-2-ylmethyl)-6,7-dihydro-5H-benzo[5,6][1,4]diazepino[7,1-a]indole-10-carboxylic acid dihydrochloride] was tested. Which IC50 did it give?
A: The IC50 was < 100 nM.

Q: With CC(C)(CNc1ccc(C(=O)O)cn1)NC(=O)c1ccc2c(C3CCCCC3)c3n(c2c1)CCOc1ccccc1-3 [Example 2-255, 6-{2-[(12-cyclohexyl-6,7-dihydro-5-oxa-7a-azadibenzo[a,e]azulene-9-carbonyl)amino]-2-methylpropylamino}nicotinic acid] as the molecule, how does the IC50 read?
A: The IC50 was < 100 nM.

Q: Which IC50 does the source give for O=C(O)c1ccc2c(C3CCCCC3)c3n(c2c1)CCN(CCN1CCCCC1)c1cc(C(F)(F)F)ccc1-3 [Example 1-159, 13-cyclohexyl-5-[2-(piperidin-1-yl)ethyl]-3-trifluoromethyl-6,7-dihydro-5H-benzo[5,6][1,4]diazepino[7,1-a]indole-10-carboxylic acid dihydrochloride] here?
A: Its IC50 is < 100 nM.

Q: With O=C(O)c1ccc2c(C3CCCCC3)c3n(c2c1)CCN(CCN1CCCCCCC1)c1ccccc1-3 [Example 1-154, 5-[2-(azocan-1-yl)ethyl]-13-cyclohexyl-6,7-dihydro-5H-benzo[5,6][1,4]diazepino[7,1-a]indole-10-carboxylic acid] as the molecule, how does the IC50 read?
A: Its IC50 is < 100 nM.

Q: For CCOCC1CCCN(CCN2CCn3c(c(C4CCCCC4)c4ccc(C(=O)O)cc43)-c3ccc(Cl)cc32)C1 (stereo not shown) [Example 1-391, 3-chloro-13-cyclohexyl-5-[2-(3-ethoxymethylpiperidin-1-yl)ethyl]-6,7-dihydro-5H-benzo[5,6][1,4]diazepino[7,1-a]indole-10-carboxylic acid dihydrochloride], which IC50 is on record?
A: Its IC50 is < 100 nM.

Q: For Cc1ccc2c(c1)N(CCCCN1CCCCC1)CCn1c-2c(C2CCCCC2)c2ccc(C(=O)O)cc21 [Example 1-425, 13-cyclohexyl-3-methyl-5-[4-(piperidin-1-yl)butyl]-6,7-dihydro-5H-benzo[5,6][1,4]diazepino[7,1-a]indole-10-carboxylic acid dihydrochloride], which IC50 is on record?
A: The IC50 was < 100 nM.

Q: How did the IC50 turn out when CC(C)Oc1ccc2c(c1)OCCn1c-2c(C2CCCCC2)c2ccc(C(=O)NC3(C(=O)Nc4ccc(/C=C/C(=O)O)cc4)CCC3)cc21 [Example 2-556, (E)-3-[4-({1-[(12-cyclohexyl-3-isopropoxy-6,7-dihydro-5-oxa-7a-azadibenzo[a,e]azulene-9-carbonyl)amino]cyclobutanecarbonyl}amino)phenyl]acrylic acid] was run?
A: Its IC50 is < 100 nM.

Q: CC(C)N1CCC(CCN2CCn3c(c(C4CCCCC4)c4ccc(C(=O)O)cc43)-c3ccccc32)CC1 [Example 1-119, 13-cyclohexyl-5-[2-(1-isopropylpiperidin-4-yl)ethyl]-6,7-dihydro-5H-benzo[5,6][1,4]diazepino[7,1-a]indole-10-carboxylic acid dihydrochloride] was tested. Which IC50 did it give?
A: Its IC50 is < 100 nM.

Q: With CCN1CCC(CN2CCn3c(c(C4CCCCC4)c4ccc(C(=O)O)cc43)-c3ccccc32)CC1 [Example 1-130, 13-cyclohexyl-5-(1-ethylpiperidin-4-ylmethyl)-6,7-dihydro-5H-benzo[5,6][1,4]diazepino[7,1-a]indole-10-carboxylic acid] as the molecule, how does the IC50 read?
A: The IC50 was < 100 nM.

Q: Which IC50 does the source give for COC(=O)[C@H](Cc1ccc(NC(=O)N(C)C)cc1)NC(=O)c1ccc2c(C3CCCCC3)c3n(c2c1)CCOc1cc(OC)ccc1-3 [Example 2-391, methyl (S)-2-[(12-cyclohexyl-3-methoxy-6,7-dihydro-5-oxa-7a-azadibenzo[a,e]azulene-9-carbonyl)amino]-3-[4-(3,3-dimethylureido)phenyl]propionate] here?
A: Its IC50 is < 100 nM.

Q: With COc1ccc2c(c1)OCCn1c-2c(C2CCCCC2)c2ccc(C(=O)N[C@@H](CCC(N)=O)C(=O)OC(C)(C)C)cc21 [Example 2-371, tert-butyl (S)-4-carbamoyl-2-[(12-cyclohexyl-3-methoxy-6,7-dihydro-5-oxa-7a-azadibenzo[a,e]azulene-9-carbonyl)amino]butyrate] as the molecule, how does the IC50 read?
A: Its IC50 is < 100 nM.

Q: How did the IC50 turn out when O=C(O)c1ccc2c(C3CCCCC3)c3n(c2c1)C(O)c1ccccc1-3 (stereo not shown) [Example 5-6, 11-cyclohexyl-6-hydroxy-6H-isoindolo[2,1-a]indole-3-carboxylic acid] was run?
A: Its IC50 is 100 to 1000 nM.

Q: How did the IC50 turn out when CC(C)(CNc1ccc(C(=O)O)cc1)NC(=O)c1ccc2c(C3CCCCC3)c3n(c2c1)CCOc1ccccc1-3 [Example 2-183, 4-{2-[(12-cyclohexyl-6,7-dihydro-5-oxa-7a-azadibenzo[a,e]azulene-9-carbonyl)amino]-2-methylpropylamino}benzoic acid] was run?
A: The IC50 was < 100 nM.

Q: For O=C(N[C@H]1CC[C@H](O)CC1)c1ccc2c(C3CCCCC3)c3n(c2c1)CCOc1ccccc1-3 [Example 2-166, N-(trans-4-hydroxycyclohexyl)-12-cyclohexyl-6,7-dihydro-5-oxa-7a-azadibenzo[a,e]azulene-9-carboxamide], which IC50 is on record?
A: The IC50 was < 100 nM.

Q: How did the IC50 turn out when O=C(O)c1ccc2c(C3CCCCC3)c3n(c2c1)CCOc1c-3cccc1N(CCOCc1ccccc1)CCN1CCCCC1 [Example 2-256, 4-{N-(2-benzyloxyethyl)-N-[2-(piperidin-1-yl)ethyl]amino}-12-cyclohexyl-6,7-dihydro-5-oxa-7a-azadibenzo[a,e]azulene-9-carboxylic acid dihydrochloride] was run?
A: The IC50 was < 100 nM.

Q: With O=C(O)CN1CCC(CO)(NC(=O)c2ccc3c(C4CCCCC4)c4n(c3c2)CCOc2ccccc2-4)CC1 [Example 2-287, {4-[(12-cyclohexyl-6,7-dihydro-5-oxa-7a-azadibenzo[a,e]azulene-9-carbonyl)amino]-4-hydroxymethylpiperidin-1-yl}acetic acid monohydrochloride] as the molecule, how does the IC50 read?
A: The IC50 was 100 to 1000 nM.

Q: CCN1CCCC(CCN2CCn3c(c(C4CCCCC4)c4ccc(C(=O)O)cc43)-c3ccc(Cl)cc32)C1 (stereo not shown) [Example 1-261, 3-chloro-13-cyclohexyl-5-[2-(1-ethylpiperidin-3-yl)ethyl]-6,7-dihydro-5H-benzo[5,6][1,4]diazepino[7,1-a]indole-10-carboxylic acid dihydrochloride] was tested. Which IC50 did it give?
A: The IC50 was < 100 nM.

Q: For CCOC1CCCN(CCN2CCn3c(c(C4CCCCC4)c4ccc(C(=O)O)cc43)-c3ccc(Cl)cc32)C1 (stereo not shown) [Example 1-326, 3-chloro-13-cyclohexyl-5-[2-(3-ethoxypiperidin-1-yl)ethyl]-6,7-dihydro-5H-benzo[5,6][1,4]diazepino[7,1-a]indole-10-carboxylic acid monohydrochloride], which IC50 is on record?
A: Its IC50 is < 100 nM.
